Key:
[1] = tested on: HCT116 cells; assay: Gel ABPP in HCT116 cells with CL16-alkyne; type: cell-based, human
Protocol: HCT116 and SW620 cells were plated onto 6-well plate at a density of 5×10^5 cells per well overnight. Then the cells were treated with CL16 at indicated concentration for 2 hours, followed by treatment with CL16-alkyne (1 μM) for 2 hours. After treatment, the cells were washed with PBS and lysed by probe sonication. Cell debris were removed by centrifugation at 5,000g for 10 min at 4° C. 50 μL of normalized protein lysates (2 mg/mL) were labeled with azide-fluor 545 by copper-catalyzed azide-alkyne cycloaddition at room temperature in dark for an hour. Then, the reaction was quenched by boiling in sampling buffer and samples were subjected to SDS-PAGE to separate proteins band for measuring in-gel fluorescence. After imaging, the gel was washed with MilliQ and incubated with Coomassie Blue stain with gentle shaking.
To identify protein target and any off-targets of CL16 in CRCs, a molecular probe of CL16, CL16-alkyne (FIG. 6A), was synthesized. […] The protein bands were then visualized by their in-gel fluorescence or blotted for RhoA. […] The probe-labeled proteins were installed with rhodamine through CuAAC, and visualized by their in-gel fluorescence after SDS-PAGE. A protein band with strong fluorescence was found at −22 kDa in the sample incubated with CL16-alkyne only, in line with the molecular weight of RhoA (FIG. 6C).

[2] = biological target: T1, RhoA (Homo sapiens, UniProt P61586); assay: GDP-GTP exchange assay (BODIPY-GTP); type: biochemical; parameters: purchased ab101594; conditions: fluorescence-based exchange assay
T1 sequence (P61586 whole entry): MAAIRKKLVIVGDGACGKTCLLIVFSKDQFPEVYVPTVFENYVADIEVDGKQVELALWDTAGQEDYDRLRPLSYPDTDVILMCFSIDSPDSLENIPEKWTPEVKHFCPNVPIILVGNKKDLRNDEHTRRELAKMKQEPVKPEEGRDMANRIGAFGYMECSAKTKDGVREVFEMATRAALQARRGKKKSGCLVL
Protocol: Recombinant human RhoA protein (0.2 μg; ab101594) was incubated with GDP (50 nM) in 100 μL of GTP-exchange buffer (20 mM HEPES, 150 mM NaCl, 5 mM MgCl2, pH 7.4) at room temperature for 1 h. CL16 or solvent control was then added to the solution mixture and incubated at room temperature for another hour. For self-exchange assay, BODIPY-GTP (100 nM) was added to the solution and the fluorescence from plate was measured every 30 s. For LARG-mediated GDP-to-GTP exchange, BODIPY-GTP (100 nM) and LARG DH-PH protein (30 nM) were added to the solution mixture and the fluorescence from plate was measured every 30 s. BODIPY-GTP was excited at 477±14 nm and its fluorescence was measured at 525±30 nm using a plate reader (Clariostar).

[3] = biological target: T1, RhoA; assay: LC-MS/MS on HCT116 cells treated with CL16; type: cell-based; parameters: endogenous in cells; host or cells: HCT116; conditions: CL16 25 or 50 μM, 4 hours
Protocol: HCT116 cells were treated with DMSO or CL16 (25 or 50 μM) in complete medium for 4 hours, washed with PBS, harvested, and lysed in PBS by sonication. The protein amount of the samples was determined by BCA assay and normalized. The cell lysates in PBS were reduced by TCEP (1 mM) at 65° C. for 30 min, followed by alkylation with iodoacetamide (18 mM) at 37° C. for 30 min in the dark. The mixtures were added with prechilled acetone (600 μL) for protein precipitation at −20° C. overnight. The samples were centrifuged at 8000g for 10 min at 4° C. The supernatant was discarded and the dried pellet was resuspended in […] in PBS (100 μL). Sequencing grade trypsin (Promega #V5111) were added to the samples for overnight digestion at 37° C. with constant shaking. The solutions were then acidified with formic acid (FA; final concentration 5%), centrifuged at 13,200 rpm for 30 min at 4° C. The supernatant was collected and stored at −80° C. before MS analysis.
The peptide solutions were dried and desalted by C18 Stage tips, and the peptides were loaded onto an Aurora C18 UHPLC column (75 μm i.d.×25 cm length×1.6 μm particle size (IonOpticks Australia) coupled to timsTOF Pro mass spectrometer (Bruker). […]

GDP-to-GTP self-exchange [2]: significant decreases
LARG-mediated GDP-to-GTP exchange [2]: significant decreases
covalent modification site on RhoA [3]: Cys16
Compound: O=C(CCl)N1N=C(c2cc3ccccc3o2)CC1c1ccco1 (centres unmarked) [CL16]
fluorescent protein band at 22 kDa labeled by CL16-alkyne ([1]; CL16 pre-treatment at 10 μM): complete abolishment of the protein band
off-target binding ([1]; HCT116 cells): minimal off-target binding
